We go through 9 compounds from PubChem BioAssay (NCI).

Among the test systems are OVCAR-5 ovarian; PC-3 prostate; T-47D breast; SK-MEL-5 melanoma; HCT-15 colon; RXF 393 renal; NCI/ADR-RES ovarian; U251 CNS; NCI-H460 lung; SW-620 colon.
Common to all, as to assay: inhibition of tumour cell growth, NCI panel, 48 h

SMILES strings stand for the structures. Values joined by “and” are separate entries in the source; they are usually repeats but may differ in a detail not shown here. Equal entries are not always repeated.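 In this assay, cells in 96-well plates receive the compound at five concentrations for 48 hours. Endpoints are linearly interpolated between the surrounding concentrations. At the GI50, growth is halved. TGI marks complete inhibition of growth.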

Take `COc1cc2c[n+](C)c3c4ccccc4ccc3c2cc1OC` (tested in a mixture with another compound): the GI50 in the assay on OVCAR-5 ovarian is 4.67 µM; in the assay on T-47D breast, 4.68 µM; in the assay on SK-MEL-5 melanoma, 7.6 µM; with U251 CNS, 1.31 µM; in the assay on NCI-H460 lung it was 2.96 µM; in the assay on SW-620 colon, 2.71 µM. In addition, the TGI in the assay on OVCAR-5 ovarian was 52.7 µM; in the assay on PC-3 prostate it was 20.1 µM; with T-47D breast, 63.3 µM; with SK-MEL-5 melanoma it was 29 µM; in the assay with HCT-15 colon it was above 100 µM; in the assay with RXF 393 renal, 54.4 µM. Moreover, the TGI with NCI/ADR-RES ovarian is above 100 µM; with U251 CNS, 6.36 µM and 16.9 µM; with NCI-H460 lung, 31.7 µM; in the assay on SW-620 colon, 48 µM.

As for `C=C(c1ccc(C(=O)N(C)c2ccccc2N)cc1)C(C)N1C(=O)[C@H]2CCCN2C(=O)c2ccccc21` (some centres not stated), the GI50 is 11.5 µM in the assay with OVCAR-5 ovarian; 26.2 µM with PC-3 prostate; 16.5 µM with T-47D breast; 31.2 µM in the assay on SK-MEL-5 melanoma; 46.5 µM in the assay on HCT-15 colon; above 100 µM in the assay with RXF 393 renal. Moreover, the results for the GI50 with NCI/ADR-RES ovarian, in the assay with NCI-H460 lung and with SW-620 colon were 20.2 µM, 32.1 µM and 38.1 µM, respectively. In addition, the TGI in the assay on OVCAR-5 ovarian is above 100 µM; with PC-3 prostate, above 100 µM; in the assay on T-47D breast, 90.5 µM; in the assay on SK-MEL-5 melanoma, above 100 µM; with HCT-15 colon it was above 100 µM; in the assay on RXF 393 renal, above 100 µM. In addition, the TGI in the assay with NCI/ADR-RES ovarian, with NCI-H460 lung and in the assay with SW-620 colon was above 100 µM each time.

As to `COc1ccc(-c2ccc(-c3ccc(-c4ccc(C(=N)N)cc4)s3)s2)cc1OC`, the GI50 with OVCAR-5 ovarian is 1.44 µM; in the assay with PC-3 prostate it was 2.78 µM; with T-47D breast, 3.09 µM; in the assay with SK-MEL-5 melanoma it was 14.7 µM; in the assay with RXF 393 renal, 11.2 µM; in the assay on NCI/ADR-RES ovarian, 2.51 µM. In addition, the GI50 in the assay with SW-620 colon is 0.882 µM. For the same compound, the TGI in the assay on OVCAR-5 ovarian was 3.6 µM; with PC-3 prostate, 9.39 µM; in the assay with T-47D breast it was 31.8 µM; in the assay with SK-MEL-5 melanoma, 60.2 µM; in the assay with RXF 393 renal, 34.6 µM; in the assay on NCI/ADR-RES ovarian it was 6.54 µM. Besides, the TGI with SW-620 colon stood at 4.2 µM.

`CN(C)C(=O)c1cc2cnc(Nc3ccc(-c4csc5c(=O)cc(N6CCOCC6)oc45)cc3)nc2n1C1CCCC1`: the GI50 with PC-3 prostate was 0.22 µM; in the assay with T-47D breast it was 0.171 µM; in the assay with SK-MEL-5 melanoma, 0.146 µM; with HCT-15 colon, 0.224 µM; in the assay on RXF 393 renal, 0.163 µM; in the assay on NCI/ADR-RES ovarian, 0.375 µM. The GI50 is 0.2 µM with U251 CNS, 0.209 µM in the assay with NCI-H460 lung and 0.153 µM in the assay with SW-620 colon. Further, the TGI with PC-3 prostate was 1.47 µM; in the assay on T-47D breast, above 100 µM; in the assay on SK-MEL-5 melanoma it was 0.423 µM; with HCT-15 colon, 1.35 µM; in the assay with RXF 393 renal it was 0.388 µM; in the assay on NCI/ADR-RES ovarian it was above 65.6 µM. For the same compound, the values for the TGI with U251 CNS, in the assay on NCI-H460 lung and in the assay on SW-620 colon were above 100 µM, 1.18 µM and 1 µM, respectively.

On to `S=C1Nc2ccc(Cl)cc2C2(c3ccccc3)N3CCN=C3NN12` (configuration not stated), for which the GI50 with OVCAR-5 ovarian was 82.7 µM; in the assay with PC-3 prostate, 39.3 µM; in the assay on T-47D breast it was 30.8 µM; in the assay on SK-MEL-5 melanoma it was 28.1 µM; with HCT-15 colon it was 34 µM; with NCI/ADR-RES ovarian it was 48.8 µM. For the same compound, the values for the GI50 with U251 CNS, in the assay with NCI-H460 lung and in the assay on SW-620 colon were 35.1 µM, 23.7 µM and 29.2 µM, respectively. For the same compound, the TGI in the assay with OVCAR-5 ovarian was above 100 µM; in the assay on PC-3 prostate, above 100 µM; in the assay with T-47D breast, 99 µM; in the assay with SK-MEL-5 melanoma, 45.4 µM; in the assay with HCT-15 colon, above 100 µM; in the assay on NCI/ADR-RES ovarian it was above 100 µM. For the same compound, the TGI with U251 CNS was above 100 µM; in the assay with NCI-H460 lung, 74.7 µM; in the assay with SW-620 colon, 83.5 µM.

As to `Cc1ccc2c(c1)NC(=O)CC(c1ccccc1)=N2`, the TGI with OVCAR-5 ovarian, in the assay with PC-3 prostate, in the assay on T-47D breast, in the assay on SK-MEL-5 melanoma, in the assay with HCT-15 colon and with NCI/ADR-RES ovarian was above 100 µM in each case. The TGI in the assay on U251 CNS, with NCI-H460 lung and in the assay with SW-620 colon was above 100 µM each time.

With `O=c1cc(-c2ccccc2)[nH]n1-c1nc2ccccc2[nH]1`, the GI50 is 12.5 µM in the assay on OVCAR-5 ovarian; 4.22 µM in the assay with PC-3 prostate; 4.41 µM in the assay with T-47D breast; 5.18 µM in the assay on SK-MEL-5 melanoma; 3.44 µM in the assay with HCT-15 colon; 3.94 µM with RXF 393 renal. Further, the GI50 in the assay on NCI/ADR-RES ovarian is 3.68 µM; in the assay on NCI-H460 lung it was 2.51 µM; in the assay on SW-620 colon it was 4.48 µM. Also, the TGI with OVCAR-5 ovarian is above 100 µM; with PC-3 prostate, 44.5 µM; in the assay on T-47D breast, above 100 µM; in the assay with SK-MEL-5 melanoma, 23.4 µM; with HCT-15 colon, above 100 µM; in the assay on RXF 393 renal it was 34.8 µM. The TGI in the assay on NCI/ADR-RES ovarian, in the assay with NCI-H460 lung and in the assay on SW-620 colon was above 100 µM in each case.

Consider `O=C(Cc1cccc(OC(F)(F)F)c1)Nc1ccc(CCCCc2nnc(NC(=O)Cc3ccccn3)s2)nn1`, for which the GI50 with OVCAR-5 ovarian is above 100 µM; in the assay on PC-3 prostate, 18.3 µM; with T-47D breast, 3.46 µM; in the assay on SK-MEL-5 melanoma, 16.1 µM; with HCT-15 colon, above 100 µM; with RXF 393 renal, 4.34 µM. Moreover, the GI50 in the assay on NCI/ADR-RES ovarian is above 100 µM; in the assay with NCI-H460 lung, 13.9 µM; in the assay on SW-620 colon, 40.4 µM. Besides, the TGI in the assay on OVCAR-5 ovarian is above 100 µM; in the assay on PC-3 prostate, above 100 µM; in the assay on T-47D breast, 26.5 µM; in the assay on SK-MEL-5 melanoma, above 100 µM; in the assay on HCT-15 colon it was above 100 µM; with RXF 393 renal it was 22.7 µM. Moreover, the TGI in the assay on NCI/ADR-RES ovarian is above 100 µM; with NCI-H460 lung, 48.3 µM; with SW-620 colon it was above 100 µM.

`COc1cc(-c2nc3sc4c(c3c(=O)[nH]2)CCCCCC4)cc(OC)c1OC`: the GI50 was 2.23 µM in the assay on OVCAR-5 ovarian; 1.5 µM with PC-3 prostate; 1.4 µM in the assay with T-47D breast; 0.853 µM in the assay with SK-MEL-5 melanoma; 0.649 µM in the assay with HCT-15 colon; 0.636 µM in the assay with RXF 393 renal. For the same compound, the GI50 was 0.892 µM in the assay with NCI/ADR-RES ovarian, 1.2 µM in the assay with NCI-H460 lung and 1.5 µM with SW-620 colon. Besides, the TGI in the assay on OVCAR-5 ovarian was above 33.2 µM; with PC-3 prostate, above 33.2 µM; in the assay on T-47D breast it was above 33.2 µM; with SK-MEL-5 melanoma, 2.96 µM; in the assay on HCT-15 colon, above 33.2 µM; in the assay with RXF 393 renal it was 2.55 µM. Moreover, the TGI in the assay with NCI/ADR-RES ovarian, in the assay with NCI-H460 lung and with SW-620 colon was above 33.2 µM throughout.
